Data as given in US20100292150A1, “Treatment of Menorrhagia with Aromatase Inhibitor” (MEDITRINA PHARMACEUTICALS, INC., priority 2007, published 2010).

Experiments:
[1] = marketed in the US for long-term chronic breast cancer therapy (five years and beyond); cited from earlier work
Women with menorrhagia [2] = experiment: Daily menstrual bleeding severity score in women receiving anastrozole for 26 days vs placebo; format: in vivo
Source text: (§1) Women with menorrhagia were enrolled in the study and divided into two groups—one as Treatment Group and the other as Control Group. Administering of anastrozole to the women in the Treatment Group started on the second day of the menstrual cycle and lasted for 26 days. In some cases, the administration started on the third day due to site scheduling limitations. Conversely, the women in the Control Group received placebo during the same period. Data on the mean menstrual bleeding severity score were recorded on a daily basis according to the following categories of vaginal bleeding: 0=none; 1=spotting; 2=mild bleeding; 3=moderate bleeding; and 4=heavy bleeding.
In the Control Group, within 6 days, the average score was down to about zero. Over the next 20 days, the fluctuations in menstrual bleeding severity would also be considered typical in that some women experience “breakthrough bleeding” which was reflected in the deviation from zero that would be expected in models of normal cycles, but was not reflected in reality. This was particularly notable during the second half of the menstrual cycle.
The observation above was contrasted by women who received anastrozole for 26 consecutive days (Treatment Group). […]

Women with menorrhagia [3] = experiment: Safety profile of anastrozole compared to placebo in the same study; format: in vivo; settings: 26 days of anastrozole
Source text: as §1
The observation above was contrasted by women who received anastrozole for 26 consecutive days (Treatment Group). On Study Day 1, which corresponds to Cycle Day 2 as with the Control Group, the women were administered 20 mg of anastrozole in the clinic office and then […] for the remaining 25 days.

[4] = test system: healthy premenopausal women; settings: 5, 10, 15 and 20 mg, single and multiple dose; 26 healthy premenopausal women; cited from earlier work

| SMILES | general safety [1] | reported bleeding over the remaining days of treatment (Women with menorrhagia [2]; 20 mg on Study Day 1, then 10 mg/day for remaining 25 days, contrasted with placebo) | mean bleeding severity at the start of the treatment interval (Women with menorrhagia [2]; score 0=none to 4=heavy bleeding, Study Day 1 = Cycle Day 2, 20 mg anastrozole on day 1) | safety liabilities (Women with menorrhagia [3]) | adverse events [4] |
| --- | --- | --- | --- | --- | --- |
| C=C1C[C@@H]2[C@H](CC[C@]3(C)C(=O)CC[C@@H]23)[C@@]2(C)C=CC(=O)C=C12 [exemestane] | generally accepted as safe drugs | – | – | – | – |
| CC(C)(C#N)c1cc(Cn2cncn2)cc(C(C)(C)C#N)c1 [anastrozole] | generally accepted as safe drugs | no bleeding or spotting reported until the very end of the cycle | ~3 | does not appear to have any significant safety liabilities | no severe, serious, or otherwise significant adverse events |
| N#Cc1ccc(C(c2ccc(C#N)cc2)n2cncn2)cc1 [letrozole] | generally accepted as safe drugs | – | – | – | – |
